Experimental data published in PMC7571065, “Design, Synthesis, In Vitro and In Silico Studies of New Thiazolylhydrazine-Piperazine Derivatives as Selective MAO-A Inhibitors” (Molecules, 2020).
“Also recorded” adds a separate entry of the source. Where two headings read alike, the source gives them in different places.

How the values were obtained:
MAO-A [1] = target: T1, MAO-A (Homo sapiens, UniProt P21397); experiment: In vitro fluorometric MAO-A inhibition assay (Ampliflu Red, tyramine); type: biochemical; settings: for inhibition at 0.001 µM / inhibition at 0.01 µM / inhibition at 0.1 µM / inhibition at 1 µM / inhibition at 10 µM: read-out: MAO-A % Inhibition; for IC50: mean ± SD, read-out: IC50 against MAO-A
T1 construct: purchased Sigma-Aldrich (Steinheim, Germany)
T1 sequence (P21397 1-527): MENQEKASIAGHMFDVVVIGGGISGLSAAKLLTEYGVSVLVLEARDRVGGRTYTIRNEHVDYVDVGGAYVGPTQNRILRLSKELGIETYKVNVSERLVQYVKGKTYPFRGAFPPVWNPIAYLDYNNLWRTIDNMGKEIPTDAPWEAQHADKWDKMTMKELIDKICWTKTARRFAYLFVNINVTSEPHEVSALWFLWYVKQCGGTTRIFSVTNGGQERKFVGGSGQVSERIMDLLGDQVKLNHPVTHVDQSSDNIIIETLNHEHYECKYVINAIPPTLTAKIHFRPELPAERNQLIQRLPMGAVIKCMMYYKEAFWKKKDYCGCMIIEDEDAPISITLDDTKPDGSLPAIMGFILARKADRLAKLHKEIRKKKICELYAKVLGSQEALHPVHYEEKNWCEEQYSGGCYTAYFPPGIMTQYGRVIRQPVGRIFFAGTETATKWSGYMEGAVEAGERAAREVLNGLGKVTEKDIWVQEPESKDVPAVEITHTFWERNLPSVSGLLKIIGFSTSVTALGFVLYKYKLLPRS

recombinant MAO-B = target: T2, recombinant MAO-B (Homo sapiens, UniProt P27338); experiment: In vitro fluorometric MAO-B inhibition assay (Ampliflu Red, tyramine); type: biochemical
T2 construct: purchased Sigma-Aldrich (Steinheim, Germany)
T2 sequence (P27338 1-520): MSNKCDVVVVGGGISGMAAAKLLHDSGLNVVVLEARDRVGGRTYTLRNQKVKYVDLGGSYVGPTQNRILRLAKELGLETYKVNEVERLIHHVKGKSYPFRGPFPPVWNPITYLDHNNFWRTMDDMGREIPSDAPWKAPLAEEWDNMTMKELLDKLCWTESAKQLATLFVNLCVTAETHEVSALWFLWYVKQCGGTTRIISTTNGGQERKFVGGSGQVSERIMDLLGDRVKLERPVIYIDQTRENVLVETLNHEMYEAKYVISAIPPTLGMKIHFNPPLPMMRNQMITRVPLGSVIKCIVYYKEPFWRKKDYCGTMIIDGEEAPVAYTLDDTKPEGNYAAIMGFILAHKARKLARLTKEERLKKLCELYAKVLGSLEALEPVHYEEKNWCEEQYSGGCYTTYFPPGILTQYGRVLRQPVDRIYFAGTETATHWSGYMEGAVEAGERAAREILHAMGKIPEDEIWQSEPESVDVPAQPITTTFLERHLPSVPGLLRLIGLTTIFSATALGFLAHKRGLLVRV

MAO-A [2] = target: T1, MAO-A; experiment: Enzyme kinetic studies (Lineweaver-Burk and secondary plot); type: biochemical
Protocol: The same materials were used in the MAO inhibition assay. […] All processes were evaluated in quadruplicate. The results were analyzed by means of Microsoft Office Excel 2013 as Lineweaver-Burk diagrams. […] of the Lineweaver-Burk plots were replotted versus the inhibitor concentration, and the Ki values were determined from the x-axis intercept as Ki.
The MAO-A inhibition mechanism was defined by conducting enzyme kinetics experiments utilizing a protocol close to that of the MAO inhibition assay. […] To estimate the type of inhibition of this compound, linear Lineweaver-Burk graphs were used. The velocity curves of the substrates were reported in the absence and presence of compound 3e. In each case, the initial velocity measurements were collected at various concentrations of substrates (tyramine) varying from 20 μM to 0.625 μM.
According to the Lineweaver-Burk plots, the type of inhibition consists of two general classes: reversible and irreversible. Mixed-type, uncompetitive, competitive and noncompetitive inhibition types are included in the reversible inhibition. […] Competitive inhibition is seen if the lines intersect on the y-axis, and the slopes and x-intercepts are different. On the contrary, non-competitive inhibition has the opposite result: the plotted lines have the same x-intercept but there are diverse slopes and y-intercepts.

Cytotoxicity MTT assay = type: cell-based; settings: mouse, NIH/3T3 mouse embryonic fibroblast cells, tested 1 mM to 0.000316 mM, read-out: IC50 NIH/3T3 Cell Line
Protocol: The NIH/3T3 mouse embryonic fibroblast cell line (ATCC® CRL-1658 ™, London, UK) was used for cytotoxicity assays. The incubation period of NIH/3T3 cells was based on the supplier’s recommendation. NIH/3T3 cells were seeded at 1 × 10^4 cells into each well of 96-well plates. MTT assay was carried out in accordance with the standards previously described manner.

SMILES | inhibition at 1000 µM (MAO-A [1]; 10^−3 M) [%] | inhibition at 100 µM (MAO-A [1]; 10^−4 M) [%] | inhibition at 1000 µM (recombinant MAO-B; 10^−3 M) [%] | inhibition at 100 µM (recombinant MAO-B; 10^−4 M) [%] | melting point [°C] | other results
C#CCN(C)CCCOc1ccc(Cl)cc1Cl [Clorgiline, clorgiline, reference compound] | – | – | – | – | – | inhibition at 0.001 µM (MAO-A [1]): 22.5 ± 0.736%; inhibition at 0.01 µM (MAO-A [1]): 34.2 ± 0.841%; inhibition at 0.1 µM (MAO-A [1]): 65.2 ± 0.997%; inhibition at 1 µM (MAO-A [1]): 78.5 ± 1.02%; inhibition at 10 µM (MAO-A [1]): 87.6 ± 1.46%
CN1CCN(c2ccc(C=NNc3nc(-c4ccccc4)cs3)cc2)CC1 [Compound 3a, 2-{2-[4-(4-Methylpiperazin-1-yl)benzylidene]hydrazinyl}-4-phenylthiazole] | 68.1 ± 1.03 | 34.3 ± 0.851 | 32.3 ± 0.985 | 25 ± 0.721 | 254 to 255 | –
Cc1ccc(-c2csc(NN=Cc3ccc(N4CCN(C)CC4)cc3)n2)cc1 [Compound 3b, 2-{2-[4-(4-Methylpiperazin-1-yl)benzylidene]hydrazinyl}-4-(4-methylphenyl)thiazole] | 71 ± 1.11 | 31.5 ± 0.732 | 34.6 ± 0.886 | 27.6 ± 0.649 | 252 to 254 | –
COc1ccc(-c2csc(NN=Cc3ccc(N4CCN(C)CC4)cc3)n2)cc1 [Compound 3c, 2-{2-[4-(4-Methylpiperazin-1-yl)benzylidene]hydrazinyl}-4-(4-methoxyphenyl)thiazole] | 92.1 ± 2.22 | 87.7 ± 1.87 | 30.3 ± 0.812 | 21.5 ± 0.879 | 226 to 228 | inhibition at 10 µM (MAO-A [1]; 10^−5 M): 75.4 ± 1.43%; inhibition at 1 µM (MAO-A [1]; 10^−6 M): 71 ± 1.09%; inhibition at 0.1 µM (MAO-A [1]; 10^−7 M): 48.3 ± 0.869%; inhibition at 0.01 µM (MAO-A [1]; 10^−8 M): 30.9 ± 0.711%; inhibition at 0.001 µM (MAO-A [1]; 10^−9 M): 21.8 ± 0.638%; IC50 (MAO-A [1]): 0.188 ± 0.008 µM
CN1CCN(c2ccc(C=NNc3nc(-c4ccc(C#N)cc4)cs3)cc2)CC1 [Compound 3d, 2-{2-[4-(4-Methylpiperazin-1-yl)benzylidene]hydrazinyl}-4-(4-cyanophenyl)thiazole] | 90.2 ± 2.04 | 84.4 ± 1.81 | 36.6 ± 0.903 | 26 ± 0.836 | 234 to 235 | inhibition at 10 µM (MAO-A [1]; 10^−5 M): 81.1 ± 1.94%; inhibition at 1 µM (MAO-A [1]; 10^−6 M): 79 ± 1.25%; inhibition at 0.1 µM (MAO-A [1]; 10^−7 M): 49.6 ± 0.811%; inhibition at 0.01 µM (MAO-A [1]; 10^−8 M): 30.6 ± 0.699%; inhibition at 0.001 µM (MAO-A [1]; 10^−9 M): 18.1 ± 0.593%; IC50 (MAO-A [1]): 0.117 ± 0.004 µM
CN1CCN(c2ccc(C=NNc3nc(-c4ccc([N+](=O)[O-])cc4)cs3)cc2)CC1 [Compound 3e, 2-{2-[4-(4-Methylpiperazin-1-yl)benzylidene]hydrazinyl}-4-(4-nitrophenyl)thiazole] | 95.3 ± 1.9 | 90.8 ± 1.73 | 39.1 ± 0.81 | 28.2 ± 0.791 | – | inhibition at 10 µM (MAO-A [1]; 10^−5 M): 85 ± 1.03%; inhibition at 1 µM (MAO-A [1]; 10^−6 M): 82.4 ± 1.39%; inhibition at 0.1 µM (MAO-A [1]; 10^−7 M): 63.9 ± 0.893%; inhibition at 0.01 µM (MAO-A [1]; 10^−8 M): 42.6 ± 0.835%; inhibition at 0.001 µM (MAO-A [1]; 10^−9 M): 23 ± 0.715%; IC50 (MAO-A [1]): 0.057 ± 0.002 µM; inhibition type (MAO-A [2]; Lineweaver-Burk plots): competitive and reversible; also recorded: reversible and competitive; Ki (MAO-A [2]; secondary plot, substrate tyramine, read-out: Ki (steady-state inhibition constant)): 0.011 µM; IC50 (Cytotoxicity MTT assay): > 1000 µM
CN1CCN(c2ccc(C=NNc3nc(-c4ccc(F)cc4)cs3)cc2)CC1 [Compound 3f, 2-{2-[4-(4-Methylpiperazin-1-yl)benzylidene]hydrazinyl}-4-(4-fluorophenyl)thiazole] | 75.9 ± 1.24 | 40.7 ± 0.98 | 30.7 ± 0.912 | 24.7 ± 0.854 | 247 to 249 | –
CN1CCN(c2ccc(C=NNc3nc(-c4ccc(Cl)cc4)cs3)cc2)CC1 [Compound 3g, 2-{2-[4-(4-Methylpiperazin-1-yl)benzylidene]hydrazinyl}-4-(4-chlorophenyl)thiazole] | 73.7 ± 1.11 | 33.5 ± 0.833 | 31.2 ± 0.789 | 24 ± 0.623 | 249 to 250 | –
CN1CCN(c2ccc(C=NNc3nc(-c4ccc(Br)cc4)cs3)cc2)CC1 [Compound 3h, 2-{2-[4-(4-Methylpiperazin-1-yl)benzylidene]hydrazinyl}-4-(4-bromophenyl)thiazole] | 70.8 ± 1.32 | 37.9 ± 0.796 | 34.4 ± 0.824 | 22.1 ± 0.796 | 253 to 255 | –
CN1CCN(c2ccc(C=NNc3nc(-c4ccc(-c5ccccc5)cc4)cs3)cc2)CC1 [Compound 3i, 2-{2-[4-(4-Methylpiperazin-1-yl)benzylidene]hydrazinyl}-4-([1,1’-biphenyl]-4-yl)thiazole] | 66.2 ± 0.972 | 41.5 ± 0.87 | 30.6 ± 0.836 | 21.5 ± 0.809 | 275 to 276 | –
Cc1ccc(-c2csc(NN=Cc3ccc(N4CCN(C)CC4)cc3)n2)c(C)c1 [Compound 3j, 2-{2-[4-(4-Methylpiperazin-1-yl)benzylidene]hydrazinyl}-4-(2,4-dimethylphenyl)thiazole] | 72.3 ± 1.03 | 38.1 ± 0.798 | 28.1 ± 0.901 | 20 ± 0.792 | 238 to 240 | –
CN1CCN(c2ccc(C=NNc3nc(-c4ccc(F)cc4F)cs3)cc2)CC1 [Compound 3k, 2-{2-[4-(4-Methylpiperazin-1-yl)benzylidene]hydrazinyl}-4-(2,4-difluorophenyl)thiazole] | 80 ± 1.3 | 35.1 ± 0.833 | 29.6 ± 0.782 | 23.2 ± 0.876 | 250 to 251 | –
CN1CCN(c2ccc(C=NNc3nc(-c4ccc(Cl)cc4Cl)cs3)cc2)CC1 [Compound 3l, 2-{2-[4-(4-Methylpiperazin-1-yl)benzylidene]hydrazinyl}-4-(2,4-chlorophenyl)thiazole] | – | – | – | – | – | MAO-A % Inhibition (MAO-A [1]; 10^−3 M): 73.521 ± 1.180%; MAO-A % Inhibition (MAO-A [1]; 10^−4 M): 40.578 ± 0.914%; MAO-B % Inhibition (recombinant MAO-B; 10^−3 M): 33.667 ± 0.991%; MAO-B % Inhibition (recombinant MAO-B; 10^−4 M): 21.373 ± 0.769%
